Measured values published in patent US11440913B2, “Aminoimidazopyridazines as kinase inhibitors” (BRISTOL-MYERS SQUIBB COMPANY, priority 2017, dated 2022).
Counter-ions that a name gives are not always drawn. Like-named read-outs stand apart in the source and are kept apart here.

Tests used:
[1] = biological target: His-GST-TVMV-hRIPK1(1-324) (Homo sapiens (Human), UniProt Q13546); test: RIPK1 HTRF Binding Assay; conditions: HTRF binding, 1 h at rt; read-out: RIPK1 (IC50)
Summary of the method: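 HTRF probe-displacement binding: 1 nM His-GST-TVMV-hRIPK1(1-324) (baculovirus construct), 90.6 nM probe, 0.2 nM anti-GST-Tb in 20 mM HEPES, 10 mM MgCl2, 0.015% Brij-35, 4 mM DTT, 0.05 mg/mL BSA. Incubated 1 h at rt; FRET 520/495 nm ratio, inhibition relative to DMSO-only wells.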

[2] = system: MLKL phosphorylation in HT29-L23 human colorectal adenocarcinoma cells; test: MLKL Phosphorylation High-Content Assay; assay type: cell-based; conditions: 6 h, necroptosis induced with TNFα, SMAC mimetic and Z-VAD, read-out: pMLKL (IC50)
Summary of the method: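 HT29-L23 cells pretreated 30 min at 37 °C with compound (6.25 to 0.106 μM final), then necroptosis induced with TNFα 35 ng/mL, SMAC mimetic 700 nM and Z-VAD 140 nM for 6 h. Fixed cells immunostained for MLKL pS358 and imaged; IC50 and Ymax from 4-parameter logistic fit.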

His-GST-TVMV-hRIPK1(1-324), sequence (Q13546 1-324): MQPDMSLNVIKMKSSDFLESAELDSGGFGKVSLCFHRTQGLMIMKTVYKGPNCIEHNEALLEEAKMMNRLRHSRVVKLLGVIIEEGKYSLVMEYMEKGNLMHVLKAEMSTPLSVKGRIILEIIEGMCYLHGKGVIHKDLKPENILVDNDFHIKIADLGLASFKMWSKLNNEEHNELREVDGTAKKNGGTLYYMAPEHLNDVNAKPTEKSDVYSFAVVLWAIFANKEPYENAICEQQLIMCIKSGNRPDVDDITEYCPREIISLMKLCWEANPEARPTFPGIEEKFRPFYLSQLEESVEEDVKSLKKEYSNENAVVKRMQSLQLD

Compound | IC50 [1] | IC50 ([2]; Homo sapiens) | IC50 [2]
[2H]C([2H])([2H])Oc1nc(C)c(-c2ccc3nc(NC(C)=O)cn3n2)cc1C(=O)NCc1cc(F)cc(F)c1OCC1CC1 [Example 177, N-{[2-(cyclopropylmethoxy)-3,5-difluorophenyl]methyl}-5-{2-acetamidoimidazo[1,2-b]pyridazin-6-yl}-2-(deutero)methoxy-6-methylpyridine-3-carboxamide] | 2 nM | 3 nM | –
Cc1ccc(-c2ccc3nc(NC(=O)[C@H](C)O)cn3n2)cc1C(=O)NCc1cc(OC(F)(F)F)ccc1F [Example 395, (S)-N-(2-fluoro-5-(trifluoromethoxy)benzyl)-5-(2-(2-hydroxypropanamido)imidazo[1,2-b]pyridazin-6-yl)-2-methylbenzamide] | 7 nM | 25 nM | –
COc1ncc(-c2ccc3nc(NC(C)=O)cn3n2)cc1C(=O)N(C)Cc1cccc(OC(F)(F)F)c1 [Example 143, 5-{2-acetamidoimidazo[1,2-b]pyridazin-6-yl}-2-methoxy-N-methyl-N-{[3-(trifluoromethoxy)phenyl]meth-yl}pyridine-3-carboxamide] | 8 nM | 4 nM | –
N-{[3,5-difluoro-2-(oxan-4- yloxy)phenyl](deutero)methyl}- 5-{2-acetamidoimidazo[1,2-b] pyridazin-6-yl}- 2-methylpyridine- 3-carboxamide [Example 192] | 3 nM | – | 5 nM
CCC(=O)Nc1cn2nc(-c3cnc(OC)c(C(=O)NCc4cc(OCC5CC5)ccc4F)c3)ccc2n1 [Example 250, N-{[5-(cyclopropylmethoxy)-2-fluorophenyl]methyl}-2-methoxy-5-{2-propanamidoimidazo[1,2-b]pyridazin-6-yl}pyridine-3-carboxamide] | 18 nM | 61 nM | –
CC(=O)Nc1cn2nc(-c3cnc(C)c(C(=O)Nc4cn(Cc5ccccc5)cn4)c3)ccc2n1 [Example 351, N-(1-benzyl-1H-imidazol-4-yl)-5-{2-acetamidoimidazo [1,2-b]pyridazin-6-yl}-2-methylpyridine-3-carboxamide] | 28 nM | 49 nM | –
COc1ncc(-c2ccc3nc(NC(C)=O)cn3n2)cc1C(=O)NCc1cc(OC(F)(F)F)ccc1F [Example 145, 5-{2-acetamidoimidazo[1,2-b]pyridazin-6-yl}-N-{[2-fluoro-5-(trifluoro-methoxy)phenyl](deutero)methyl}-2-methoxypyridine-3-carboxamide] | 5 nM | – | 27 nM
CC(=O)Nc1cn2nc(-c3cnc(C)c(C(=O)NCc4c(F)cccc4OCC4CCC4)c3)ccc2n1 [Example 219, N-{[2-(cyclobutylmethoxy)-6-fluorophenyl]methyl}-5-{2-acetamidoimidazo[1,2-b]pyridazin-6-yl}-2-methylpyridine-3-carboxamide] | 3 nM | 1 nM | –
COc1nc(C)c(-c2ccc3nc(NC(C)=O)cn3n2)cc1C(=O)NCc1ccccc1OC1CCOC1 (stereo not shown) [Example 306, 5-{2-acetamidoimidazo[1,2-b]pyridazin-6-yl}-2-methoxy-6-methyl-N-{[2-(oxolan-3-yloxy)phenyl]methyl}pyridine-3-carboxamide] | 5 nM | 6 nM | –
COCC(=O)Nc1cn2nc(-c3cnc(OC)c(C(=O)NCc4cc(F)cc(F)c4OCC4CC4)c3)ccc2n1 [Example 261, N-{[2-(cyclopropylmethoxy)-3,5-difluorophenyl]methyl}-2-methoxy-5-[2-(2-methoxyacetamido)imidazo[1,2-b]pyridazin-6-yl]pyridine-3-carboxamide, TFA] | 7 nM | – | 8 nM
COc1ncc(-c2ccc3nc(NC(C)=O)cn3n2)cc1C(=O)NCc1ccccc1COC(C)C [Example 114, 5-{2-acetamidoimidazo[1,2-b]pyridazin-6-yl}-2-methoxy-N-({2-[(propan-2-yloxy)methyl]phenyl}meth-yl)pyridine-3-carboxamide, TFA] | 8 nM | – | 33 nM
CC(=O)Nc1cn2nc(-c3cnc(C)c(C(=O)NCc4cc(F)cc(F)c4OC4CC(C)OC(C)C4)c3)ccc2n1 (stereo not shown) [Example 189, N-({2-[(2,6-dimethyloxan-4-yl)oxy]-3,5-difluorophenyl}methyl)-5-{2-acetamidoimidazo [1,2-b]pyridazin-6-yl}-2-methylpyridine-3-carboxamide] | 91 nM | 208 nM | –
Cc1nc(C)c(-c2ccc3nc(NC(=O)CO)cn3n2)cc1C(=O)NCc1cc(F)cc(F)c1O[C@H]1CCOC1 [Example 91, N-({3,5-difluoro-2-[(3S)-oxolan-3-yloxy]phenyl}methyl)-5-[2-(2-hydroxy-acetamido)imidazo[1,2-b]pyridazin-6-yl]-2,6-dimethylpyridine-3-carboxamide, TFA] | 61 nM | 442 nM | –
CC(=O)Nc1cn2nc(-c3cnc(C)c(C(=O)NCc4cc(F)ccc4OC4CCCC4)c3)ccc2n1 [Example 222, N-{[2-(cyclopentyloxy)-5-fluorophenyl]methyl}-5-{2-acetamidoimidazo[1,2-b]pyridazin-6-yl}-2-methylpyridine-3-carboxamide] | 3 nM | 2 nM | –
[2H]C([2H])([2H])Oc1ncc(-c2ccc3nc(NC(C)=O)cn3n2)cc1C(=O)NC(C)c1cc(C(F)(F)F)ccc1F (stereo not shown) [Example 51, 5-{2-acetamidoimidazo[1,2-b]pyridazin-6-yl}-N-{1-[2-fluoro-5-(trifluoromethyl)phenyl]ethyl}-2-(D3)methoxypyridine-3-carboxamide] | 63 nM | 200 nM | –
[2H]C([2H])(NC(=O)c1cc(-c2ccc3nc(NC(=O)CO)cn3n2)cnc1OC)c1cc(F)cc(F)c1OC1CCOCC1 [Example 2, N-{[3,5-difluoro-2-(oxan-4-yloxy)phenyl](D2)methyl}-5-[2-(2-hydroxyacetamido)imidazo[1,2-b]pyridazin-6-yl]-2-methoxypyridine-3-carboxamide] | 2 nM | 4 nM | –
COc1nc(C)c(-c2ccc3nc(NC(C)=O)cn3n2)cc1C(=O)NCc1ccccc1OC(C)C1CCCC1 (stereo not shown) [Example 303, N-{[2-(1-cyclopentylethoxy)phenyl]methyl}-5-{2-acetamidoimidazo[1,2-b]pyridazin-6-yl}-2-methoxy-6-methylpyridine-3-carboxamide] | 22 nM | – | 43 nM
CC(=O)Nc1cn2nc(-c3cc(C(=O)NCC[C@@H](O)c4ccc(Cl)cc4)c(C)cc3C)ccc2n1 [Example 382, N-[(3R)-3-(4-chlorophenyl)-3-hydroxypropyl]-5-{2-acetamidoimidazo [1,2-b]pyridazin-6-yl}-2,4-dimethylbenzamide] | 4 nM | 2 nM | –
COc1nc(C)c(-c2ccc3nc(NC(C)=O)cn3n2)cc1C(=O)NCc1ccccc1OCC1CCCC1 [Example 316, N-{[2-(cyclopentylmethoxy)phenyl]methyl}-5-{2-acetamidoimidazo[1,2-b]pyridazin-6-yl}-2-methoxy-6-methylpyridine-3-carboxamide] | 4 nM | 8 nM | –
COc1ncc(-c2ccc3nc(NC(C)=O)cn3n2)cc1C(=O)NCc1cc(F)cc(F)c1OCC(C)C [Example 116, N-{[3,5-difluoro-2-(2-methylpropoxy)phenyl]methyl}-5-{2-acetamidoimidazo[1,2-b]pyridazin-6-yl}-2-methoxypyridine-3-carboxamide] | 10 nM | 3 nM | –
CC(=O)Nc1cn2nc(-c3cnc(C)c(C(=O)NCc4ccccc4OC4CCOC4)c3)ccc2n1 (stereo not shown) [Example 224, 5-{2-acetamidoimidazo[1,2-b]pyridazin-6-yl}-2-methyl-N-{[2-(oxolan-3-yloxy)phenyl]methyl}pyridine-3-carboxamide] | 157 nM | 334 nM | –
5-{2-acetamidoimidazo[1,2-b]pyridazin- 6-yl}-N-{[3-fluoro-5- (trifluoromethoxy)phenyl]methyl}-2,6- dimethylpyridine-3-carboxamide, TFA [Example 79] | 38 nM | – | 46 nM
COc1ncc(-c2ccc3nc(NC(C)=O)cn3n2)cc1C(=O)NCc1ccccc1-n1cccc1 [Example 160, 5-{2-acetamidoimidazo[1,2-b]pyridazin-6-yl}-2-methoxy-N-{[2-(1H-pyrrol-1-yl)phenyl]methyl}pyridine-3-carboxamide] | 489 nM | 331 nM | –
COc1nc(C)c(-c2ccc3nc(NC(C)=O)cn3n2)cc1C(=O)NCc1cccc(OC(F)(F)F)c1 [Example 319, 5-{2-acetamidoimidazo[1,2-b]pyridazin-6-yl}-2-methoxy-6-methyl-N-{[3-(trifluoromethoxy)phenyl]methyl}pyridine-3-carboxamide] | 15 nM | 29 nM | –
CC(=O)Nc1cn2nc(-c3cnc(C)c(C(=O)N(C)[C@H](C)c4cc(OC(F)(F)F)ccc4F)c3)ccc2n1 [Example 330, 5-{2-acetamidoimidazo[1,2-b]pyridazin-6-yl}-N-[(1R)-1-[2-fluoro-5-(trifluoromethoxy)phenyl]ethyl]-N,2-dimethylpyridine-3-carboxamide] | 46 nM | 106 nM | –
COc1ncc(-c2ccc3nc(NC(C)=O)cn3n2)cc1C(=O)NCc1cc(OCC2CC2)ccc1F [Example 149, N-{[5-(cyclopropylmethoxy)-2-fluorophenyl]methyl}-5-{2-acetamidoimidazo[1,2-b]pyridazin-6-yl}-2-methoxypyridine-3-carboxamide] | 16 nM | 74 nM | –
